Reference: patent EP4678638A1, “NEW E3 UBIQUITIN LIGASE LIGAND, PROTEIN DEGRADATION AGENT AND USE THEREOF” (priority 2023, dated 2024)

Columns and labels:
[1] = target: T1, RSK2 (Homo sapiens, UniProt P51812); assay: Western blot degradation of RSK2 (hPBMC); assay type: cell-based; settings: Table D8
T1 construct: evaluate the effects of the compounds of the present disclosure on the expression of target proteins in cells; endogenous in cells; host or cells: hPBMC
How it was run: (§1)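 Degradation is assessed by immunoblotting lysates of treated cells. Target bands are quantified by grayscale and normalised to an internal control, so degradation rate equals 100% minus % remaining.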

[2] = target: T2, human Cereblon WT GST-tagged protein (Homo sapiens, UniProt Q96SW2); assay: CRBN binding, HTRF (CEREBLON BINDING kit); settings: Table II-2, CRBN binding screening, HTRF; for inhibition at 0.5 µM: read-out: Inhibition rate (%) at 0.5µM; for inhibition at 2 µM: read-out: Inhibition rate (%) at 2 µM
T2 construct: purchased CISBIO 64BDCRBNPEH
T2 sequence (Q96SW2 whole entry): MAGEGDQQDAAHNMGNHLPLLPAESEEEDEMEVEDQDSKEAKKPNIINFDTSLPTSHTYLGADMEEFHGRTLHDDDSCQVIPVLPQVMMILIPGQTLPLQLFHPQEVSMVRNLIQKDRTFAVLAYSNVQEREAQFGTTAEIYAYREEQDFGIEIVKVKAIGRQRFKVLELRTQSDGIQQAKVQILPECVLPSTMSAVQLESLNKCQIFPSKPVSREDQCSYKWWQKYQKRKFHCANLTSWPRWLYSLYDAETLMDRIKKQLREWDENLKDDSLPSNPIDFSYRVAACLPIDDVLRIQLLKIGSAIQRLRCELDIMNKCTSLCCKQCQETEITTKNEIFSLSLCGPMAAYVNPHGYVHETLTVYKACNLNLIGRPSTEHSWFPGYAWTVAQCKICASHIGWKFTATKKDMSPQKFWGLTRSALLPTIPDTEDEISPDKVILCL
How it was run: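 After 3 h at room temperature, emission at 665 and 620 nm was measured in a homogeneous time-resolved fluorescence format. Compounds competed with a Thalidomide-Re probe for GST-tagged wild-type human CRBN, which was labelled with a Eu anti-GST antibody.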

[3] = target: T3, RSK1 (Homo sapiens, UniProt Q15418); assay: Western blot degradation of RSK1 (hPBMC); assay type: cell-based; settings: Table D8
T3 construct: evaluate the effects of the compounds of the present disclosure on the expression of target proteins in cells; endogenous in cells; host or cells: hPBMC
T3 sequence (Q15418 whole entry): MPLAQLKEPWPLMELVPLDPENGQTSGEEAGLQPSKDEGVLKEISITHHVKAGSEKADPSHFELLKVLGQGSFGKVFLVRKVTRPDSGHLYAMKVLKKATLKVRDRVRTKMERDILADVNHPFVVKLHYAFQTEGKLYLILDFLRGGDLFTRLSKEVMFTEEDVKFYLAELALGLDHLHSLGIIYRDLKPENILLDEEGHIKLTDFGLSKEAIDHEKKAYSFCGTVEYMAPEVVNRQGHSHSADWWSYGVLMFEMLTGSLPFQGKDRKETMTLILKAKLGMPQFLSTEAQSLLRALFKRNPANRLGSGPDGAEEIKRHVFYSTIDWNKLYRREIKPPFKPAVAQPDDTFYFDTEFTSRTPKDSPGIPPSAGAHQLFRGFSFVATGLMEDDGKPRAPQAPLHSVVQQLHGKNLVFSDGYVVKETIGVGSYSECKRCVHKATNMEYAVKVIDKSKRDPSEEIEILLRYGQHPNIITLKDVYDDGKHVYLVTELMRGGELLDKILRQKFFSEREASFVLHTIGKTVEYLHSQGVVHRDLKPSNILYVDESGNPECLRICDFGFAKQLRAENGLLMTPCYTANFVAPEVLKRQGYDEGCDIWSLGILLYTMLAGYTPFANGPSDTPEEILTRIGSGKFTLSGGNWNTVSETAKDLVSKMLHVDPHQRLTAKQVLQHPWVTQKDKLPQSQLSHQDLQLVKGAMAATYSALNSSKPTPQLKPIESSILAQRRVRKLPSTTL
How it was run: as §1

T1 sequence (P51812 whole entry): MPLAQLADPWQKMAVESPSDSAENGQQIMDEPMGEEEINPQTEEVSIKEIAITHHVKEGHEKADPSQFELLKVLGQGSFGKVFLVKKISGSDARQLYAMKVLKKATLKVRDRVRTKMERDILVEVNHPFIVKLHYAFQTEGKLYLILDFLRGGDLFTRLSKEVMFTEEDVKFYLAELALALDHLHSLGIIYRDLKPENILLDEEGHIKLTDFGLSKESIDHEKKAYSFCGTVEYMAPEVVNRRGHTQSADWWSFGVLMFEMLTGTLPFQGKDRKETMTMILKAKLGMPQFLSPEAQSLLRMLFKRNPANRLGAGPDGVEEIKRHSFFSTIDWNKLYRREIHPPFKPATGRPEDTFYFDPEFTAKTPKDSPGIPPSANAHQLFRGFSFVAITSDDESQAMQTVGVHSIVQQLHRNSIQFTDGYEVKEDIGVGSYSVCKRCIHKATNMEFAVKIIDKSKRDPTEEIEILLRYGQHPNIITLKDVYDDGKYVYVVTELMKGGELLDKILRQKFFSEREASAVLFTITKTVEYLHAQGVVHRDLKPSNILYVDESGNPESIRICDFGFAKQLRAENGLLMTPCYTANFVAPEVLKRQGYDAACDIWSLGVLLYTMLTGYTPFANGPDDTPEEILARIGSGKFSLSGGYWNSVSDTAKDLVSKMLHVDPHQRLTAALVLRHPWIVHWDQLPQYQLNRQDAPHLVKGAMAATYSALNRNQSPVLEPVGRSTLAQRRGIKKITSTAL

inhibition at 0.5 µM [2] | inhibition at 2 µM [2] | Compound | Degradation of substrate protein RSK2 (substrate protein remaining %) [1] | Degradation of substrate protein RSK1 (substrate protein remaining %) [3]
30 to 40% | 40 to 53% | C[C@@H]1CNC(=O)c2cc3ccc(C(=O)Nc4cnn(Cc5ccc(NCc6ccnc(N7CCC(=O)NC7=O)c6)cc5)c4)nc3n21 [GT-07795, (R)-N-(1-(4-(((2-(2,4-dioxotetrahydropyrimidin-1(2H)-yl)pyridin-4-yl)methyl)amino)benzyl)-1H-pyrazol-4-yl)-9-methyl-6-oxo-6,7,8,9-tetrahydropyrido[3',2':4,5]pyrrolo[1,2-a]pyrazine-2-carboxamide] | B (B is defined as substrate protein remaining % > 80%) | A (A is defined as 0% ≤ substrate protein remaining % ≤ 80%)
80 to 100% | 80 to 100% | C[C@@H]1CNC(=O)c2cc3ccc(C(=O)Nc4cnn(Cc5ccc(NCc6cncc(N7CCC(=O)NC7=O)c6)cc5)c4)nc3n21 [GT-07796, (R)-N-(1-(4-(((5-(2,4-dioxotetrahydropyrimidin-1(2H)-yl)pyridin-3-yl)methyl)amino)benzyl)-1H-pyrazol-4-yl)-9-methyl-6-oxo-6,7,8,9-tetrahydropyrido[3',2':4,5]pyrrolo[1,2-a]pyrazine-2-carboxamide] | B (B is defined as substrate protein remaining % > 80%) | A (A is defined as 0% ≤ substrate protein remaining % ≤ 80%)
60 to 80% | 80 to 100% | C[C@@H]1CNC(=O)c2cc3ccc(C(=O)Nc4cnn(Cc5ccc(N6CCN(Cc7ccc(C8CCC(=O)NC8=O)cc7)CC6)cc5)c4)nc3n21 (stereo partly drawn) [GT-07926, (9R)-N-(1-(4-(4-(4-(2,6-dioxopiperidin-3-yl)benzyl)piperazin-1-yl)benzyl)-1H-pyrazol-4-yl)-9-methyl-6-oxo-6,7,8,9-tetrahydropyrido[3',2':4,5]pyrrolo[1,2-a]pyrazine-2-carboxamide] | B (B is defined as substrate protein remaining % > 80%) | A (A is defined as 0% ≤ substrate protein remaining % ≤ 80%)
30 to 40% | 60 to 80% | C[C@@H]1CNC(=O)c2cc3ccc(C(=O)Nc4cnn(Cc5ccc(N6CCC(N(C)Cc7cc(C8CCC(=O)NC8=O)cnc7F)CC6)cc5)c4)nc3n21 (stereo partly drawn) [GT-07946, (9R)-N-(1-(4-(4-(((5-(2,6-dioxopiperidin-3-yl)-2-fluoropyridin-3-yl)methyl)(methyl)amino)piperidin-1-yl)benzyl)-1H-pyrazol-4-yl)-9-methyl-6-oxo-6,7,8,9-tetrahydropyrido[3',2':4,5]py rrolo[1,2-a]pyrazine-2-carboxamide] | A (A is defined as 0% ≤ substrate protein remaining % ≤ 80%) | A (A is defined as 0% ≤ substrate protein remaining % ≤ 80%)
20 to 30% | 53 to 60% | C[C@@H]1CNC(=O)c2cc3ccc(C(=O)Nc4cnn(Cc5ccc(N6CCC(N7CCN(Cc8cccc(N9CCC(=O)NC9=O)c8)CC7)CC6)cc5)c4)nc3n21 [GT-07953, (R)-N-(1-(4-(4-(4-(3-(2,4-dioxotetrahydropyrimidin-1(2H)-yl)benzyl)piperazin-1-yl)piperidin-1-yl)benzyl)-1H-pyrazol-4-yl)-9-methyl-6-oxo-6,7,8,9-tetrahydropyrido[3',2':4,5]pyrrolo[1,2-a]pyrazine-2-carboxamide] | A (A is defined as 0% ≤ substrate protein remaining % ≤ 80%) | A (A is defined as 0% ≤ substrate protein remaining % ≤ 80%)
60 to 80% | 80 to 100% | C[C@@H]1CNC(=O)c2cc3ccc(C(=O)Nc4cnn(Cc5ccc(N6CCC(N7CCN(Cc8ccc(N9CCC(=O)NC9=O)cn8)CC7)CC6)cc5)c4)nc3n21 [GT-07954, (R)-N-(1-(4-(4-(4-((5-(2,4-dioxotetrahydropyrimidin-1(2H)-yl)pyridin-2-yl)methyl)piperazin-1-yl)piperidin-1-yl)benzyl)-1H-pyrazol-4-yl)-9-methyl-6-oxo-6,7,8,9-tetrahydropyrido[3',2':4,5]pyrrolo[1,2-a]pyrazine-2-carboxamide] | A (A is defined as 0% ≤ substrate protein remaining % ≤ 80%) | A (A is defined as 0% ≤ substrate protein remaining % ≤ 80%)
 |  | C[C@@H]1CNC(=O)c2cc3ccc(C(=O)Nc4cnn(Cc5ccc(N6CCC(N7CCN(Cc8cncc(N9CCC(=O)NC9=O)c8)CC7)CC6)cc5)c4)nc3n21 [GT-07959, (R)-N-(1-(4-(4-(4-((5-(2,4-dioxotetrahydropyrimidin-1(2H)-yl)pyridin-3-yl)methyl)piperazin-1-yl)piperidin-1-yl)benzyl)-1H-pyrazol-4-yl)-9-methyl-6-oxo-6,7,8,9-tetrahydropyrido[3',2':4,5]pyrrolo[1,2-a]pyrazine-2-carboxamide] | A (A is defined as 0% ≤ substrate protein remaining % ≤ 80%) | A (A is defined as 0% ≤ substrate protein remaining % ≤ 80%)
30 to 40% | 53 to 60% | C[C@@H]1CNC(=O)c2cc3ccc(C(=O)Nc4cnn(Cc5ccc(N6CCC(N7CCN(Cc8cc(C9CCC(=O)NC9=O)cnc8F)CC7)CC6)cc5)c4)nc3n21 (stereo partly drawn) [GT-07960, (9R)-N-(1-(4-(4-(4-((5-(2,6-dioxopiperidin-3-yl)-2-fluoropyridin-3-yl)methyl)piperazin-1-yl)piperidin-1-yl)benzyl)-1H-pyrazol-4-yl)-9-methyl-6-oxo-6,7,8,9-tetrahydropyrido[3',2':4,5]pyrrolo[1,2-a]pyrazine-2-carboxamide] | B (B is defined as substrate protein remaining % > 80%) | A (A is defined as 0% ≤ substrate protein remaining % ≤ 80%)
20 to 30% | 60 to 80% | C[C@@H]1CNC(=O)c2cc3ccc(C(=O)Nc4cnn(Cc5ccc(N6CCC(N7CCN(Cc8cncc(C9CCC(=O)NC9=O)c8)CC7)CC6)cc5)c4)nc3n21 (stereo partly drawn) [GT-07961, (9R)-N-(1-(4-(4-(4-((5-(2,6-dioxopiperidin-3-yl)pyridin-3-yl)methyl)piperazin-1-yl)piperidin-1-yl)benzyl)-1H-pyrazol-4-yl)-9-methyl-6-oxo-6,7,8,9-tetrahydropyrido[3',2':4,5]pyrrolo[1,2-a]pyrazine-2-carboxamide] | A (A is defined as 0% ≤ substrate protein remaining % ≤ 80%) | A (A is defined as 0% ≤ substrate protein remaining % ≤ 80%)
20 to 30% | 53 to 60% | C[C@@H]1CNC(=O)c2cc3ccc(C(=O)Nc4cnn(Cc5ccc(N6CCC(N7CCN(Cc8cc(N9CCC(=O)NC9=O)cnc8F)CC7)CC6)cc5)c4)nc3n21 [GT-07962, (R)-N-(1-(4-(4-(4-((5-(2,4-dioxotetrahydropyrimidin-1(2H)-yl)-2-fluoropyridin-3-yl)methyl)piperazin-1-yl)piperidin-1-yl)benzyl)-1H-pyrazol-4-yl)-9-methyl-6-oxo-6,7,8,9-tetrahydropyrido[3',2':4,5]pyrrolo[1,2-a]pyrazine-2-carboxamide] | A (A is defined as 0% ≤ substrate protein remaining % ≤ 80%) | A (A is defined as 0% ≤ substrate protein remaining % ≤ 80%)
 |  | C[C@@H]1CNC(=O)c2cc3ccc(C(=O)Nc4cnn(Cc5ccc(N6CCC(N7CCN(Cc8cnc(N9CCC(=O)NC9=O)cn8)CC7)CC6)cc5)c4)nc3n21 [GT-07963, (R)-N-(1-(4-(4-(4-((5-(2,4-dioxotetrahydropyrimidin-1(2H)-yl)pyrazin-2-yl)methyl)piperazin-1-yl)piperidin-1-yl)benzyl)-1H-pyrazol-4-yl)-9-methyl-6-oxo-6,7,8,9-tetrahydropyrido[3',2':4,5]pyrrolo[1,2-a]pyrazine-2-carboxamide] | A (A is defined as 0% ≤ substrate protein remaining % ≤ 80%) | A (A is defined as 0% ≤ substrate protein remaining % ≤ 80%)
